Tests used:
[1] = test system: human nasal epithelial cell line; experiment: Gene expression by quantitative real-time PCR in nasal epithelial cells; type: cell-based; details: 1 hour
Protocol: The fold change was calculated based on normalisation to the expression of the endogenous R-actin housekeeping gene. […] The dotted line for y=0 represents the untreated control group to which gene expression in the treatment groups were normalised and compared using an unpaired two tailed T test. *p≤0.05, ** […], *** p≤0.001, **** p≤0.0001; A human nasal epithelial cell line was used to investigate the immediate effect of SurgihoneyRO (also known as Surgihoney) on the integrity and function of the epithelium. In addition, a human mast cell line was used as a representative leukocyte to investigate immunological responses to SurgihoneyRO. Mast cells were selected because of their function as sentinel cells, being located just underneath the epithelium in tissues. Mast cells have close contact to the external environment, for example being found in the nasal mucosa, where they are ideally placed to participate in the early recognition of pathogens—by acting as immune effectors and modulatory cells with an essential role in linking innate and adaptive immunity in the host's defence against pathogens such as bacteria. […] In this case, we treated cells with an appropriate concentration range of pure hydrogen peroxide, from 0-400 uM.

[2] = test system: human mast cell line (HMC-1); experiment: Gene expression by quantitative real-time PCR in mast cells; type: cell-based; details: 1 hour
Protocol: Gene-expression profiles for Th17 related cytokines were analysed in HMC-1 treated with 10 g/L or 100 g/L of SurgihoneyRO for 5 minutes, 1 hour and 2 hours using quantitative real-time PCR. The fold change was calculated based on normalisation to the expression of the endogenous R-actin housekeeping gene. […] The dotted line for y=0 represents the untreated control group to which gene expression in the treatment groups were normalised and compared using an unpaired two tailed T test. *p≤0.05, ** […], *** p≤0.001, **** p≤0.0001;
A human nasal epithelial cell line was used to investigate the immediate effect of SurgihoneyRO (also known as Surgihoney) on the integrity and function of the epithelium. In addition, a human mast cell line was used as a representative leukocyte to investigate immunological responses to SurgihoneyRO. Mast cells were selected because of their function as sentinel cells, being located just underneath the epithelium in tissues.
We then studied the response of the mast cell line (HMC-1) to SurgihoneyRO treatment.
In this case, we treated cells with an appropriate concentration range of pure hydrogen peroxide, from 0-400 uM.

[3] = 20° C. and 1 atm; cited from earlier work
[4] = test system: 48 h in vitro NTHi biofilms; experiment: NTHi biofilm assay (cfu enumeration); type: cell-based, non-typeable Haemophilus influenza; details: 300/60 μg·ml; 2 hours
Protocol: Bacterial strains used in this study were isolated from nasopharyngeal swabs of children aged 4 years. NTHi was sub-cultured from frozen stocks onto Colombia agar with chocolated horse blood (Oxoid, UK) and incubated for 18 h at 37° C. and 5% CO2, following which colonies were resuspended in Brain Heart Infusion (BHI) broth supplemented with 10 μg/ml Hemin and 2 μg/ml NAD, and grown to mid-exponential phase for experiments. Pseudomonas aeruginosa PA01 and a clinical methicillin resistant Staphylococcus aureus isolate were subcultured onto Colombia blood agar plates (Oxoid, UK) and grown in non-supplemented BHI. […]
Mid-exponential planktonic cultures were used to inoculate individual wells of untreated 6-well polystyrene plates (˜1.0×10^8 planktonic bacteria per well; Corning Incorporated, USA). Cultures were incubated at 37° C. and 5% CO2 for 48 h, replacing spent media with fresh supplemented BHI (NTHi) at 24 h. Prior to treatment spent media was removed and biofilms washed twice with Hanks' balanced salt solution (HBSS; Gibco, UK). Biofilms were treated with SurgihoneyRO™ or Acacia (both prepared in HBSS) at final concentrations of 7 to 213 g/L. To assess the effect of pH biofilms were treated with HBSS adjusted to pH6.3 (the pH of 71 g/L SurgihoneyRO™ in HBSS). For adjuvant assays biofilms were treated with 300 μg/mL amoxicillin and 60 μg/mL clavulanic acid (Co-amoxiclav). […]

In the case of `OO` [hydrogen peroxide], the “IL22 expression, fold change” value ([1]; 40 μM) is reported as 0.90 fold, the “IL23R expression, fold change” value ([1]; 40 μM) is reported as 0.45 fold and the “IL22 expression, fold change” value ([1]; 200 μM) is reported as 1.42 fold. The “IL23R expression, fold change” value ([1]; 200 μM) was 1.20 fold, the “GATA3 expression, fold increase” value ([1]; 400 μM) was 0.92 fold and the “IL10 expression, fold change” value ([1]; 400 μM) was 4.63 fold. The “IL22 expression, fold change” value ([1]; 400 μM) was 4.55 fold, the “IL23R expression, fold change” value ([1]; 400 μM) was 1.87 fold and the “MMP9 expression, fold change” value ([1]; 400 μM) was 1.47 fold. For the same molecule, the “RORγC expression, mean increase” value ([1]; 400 μM) was 14.57 fold, the “IL22 expression, fold change” value ([2]; 40 μM) was 0.60 fold and the “IL23R expression, fold change” value ([2]; 40 μM) was 0.47 fold. For the same molecule, the “IL22 expression, fold change” value ([2]; 200 μM) was 1.25 fold, the “IL23R expression, fold change” value ([2]; 200 μM) was 0.58 fold and the “MMP7 expression, fold increase” value ([2]; 200 μM) was 3.07 fold. For the same molecule, the “IL22 expression, fold change” value ([2]; 400 μM) was 1.81 fold, the “IL23R expression, fold change” value ([2]; 400 μM) was 1.05 fold and the “MMP7 expression, fold increase” value ([2]; 400 μM) was 3.31 fold. The “RORγC expression, mean increase” value ([2]; 400 μM) was 2.83 fold.
For `O=C(CO)[C@@H](O)[C@H](O)[C@H](O)CO` [Fructose], the solubility [3] is given as “about 375 g/100 g water”.
For co-amoxiclav, the “effect on biofilm viability” value [4] was “no effect”.
